Experimental data published in patent US11191855B2, “1,7-diaryl-1,6-heptadiene-3,5-dione derivatives, methods for the production and use thereof” (UNIVERSITÄTSKLINIKUM REGENSBURG, priority 2015, dated 2021).

Test system: E. coli ATCC 25922
Test: Phototoxicity test c.2) (BlueV light source, emission maximum approx. 420 nm, CFU count)
Type: cell-based, Escherichia coli
Conditions: light dose 15.7 J/cm^2, approx. 420 nm, 15 min at 17.5 mW/cm^2, vs reference control
Experimental: A sample of the bacterial cell Staphylococcus. aureus (ATCC number: 25923) or Escherichia. coli (ATCC number: 25922) was removed from a cryo-freeze culture and cultured under aerobic conditions at 37° C. and 175 rpm overnight in an orbital shaker (MAXQ4000, Thermo Scientific, Dubuque, Iowa, USA). Growth was carried out in 20 mL Todd-Hewitt broth (Carl Roth, Karlsruhe, Germany) supplemented with 0.3% of yeast extract (AppliChem, Darmstadt, Germany).
In a second experiment, the photosensitizers (PS) used were dissolved in Millipore water and adjusted to various concentrations. 25 μL of a bacterial suspension grown overnight (˜108/mL) was incubated with 25 μL of photosensitizer solution of the various concentrations at room temperature for 10 seconds in darkness in a 96-well plate.
Next, the suspension was irradiated for 5-20 minutes. For the irradiation, the light source BlueV from Waldmann (Villingen-Schwenningen, Germany) was used, which emits light from 380 to 480 nm (emission maximum at approximately 420 nm). The applied energy density was 17.5 mW/cm^2.
Each experiment was accompanied by three controls in order to exclude side effect of the irradiation/photosensitizer (PS) on the survival of the bacteria: (i) no PS, only light (=light control), (ii) no light, only PS (=dark control) and (iii) neither light nor PS (=reference control). The determination of the colony forming units (CFU) per mL was also carried out in accordance with the method published by Miles, Misra and Irwin described above in section c.1). All of the tests were carried out four times.
The photosensitizers (PS) SACUR-01a, SACUR-03 and SACUR-07 were tested against the bacterial strains S. aureus ATCC 25923 and E. coli ATCC 25922 (FIGS. 21-23). All of the remaining PS were tested against S. aureus ATCC 25923 (FIGS. 24-33). FIGS. 21-33 show the logarithmic reduction after illumination with respect to the reference control.
The average reference control (arithmetic mean with standard deviation) (no light, no PS) was 3.6×10^8/mL for E. coli. The logarithmic reduction after illumination is shown with respect to the reference control.

SMILES | Effectiveness against E. Coli: Reduction in CFU in log10 at concentration of 10 μM | Effectiveness against E. Coli: Reduction in CFU in log10 at concentration of 50 μM
Cl.Cl.Cl.Cl.NCCOc1ccc(/C=C/C(=O)CC(=O)/C=C/c2ccc(OCCN)c(OCCN)c2)cc1OCCN [Curcumin 03 hydrochloride] | >4 log10 | >5 log10
COc1cc(/C=C/C(=O)CC(=O)/C=C/c2ccc(OCCN)c(OC)c2)ccc1OCCN.Cl.Cl [Curcumin 01a hydrochloride] | >4 log10 | >5 log10
